Measurements from patent publication US20160286797A1, “Herbicidal Agents Containing Aclonifen” (BAYER CROPSCIENCE AKTIENGESELLSCHAFT, priority 2013, published 2016).

How the values were obtained:
[1] = test system: Lolium spp. resistant to HRAC group B; assay: Greenhouse experiment, post-emergence treatment of ryegrass biotype resistant to HRAC group B; type: in vivo; settings: post-emergence (PO, BBCH 11), about 3 weeks after application
Procedure: (§1) In the standard design of the test, seeds of various broad-leaved weed and weed grass biotypes (origins) were sown in a 8-13 cm diameter pot filled with natural soil of a standard field soil (loamy silt; non-sterile) and covered with a covering soil layer of about 1 cm. The pots were then cultivated in a greenhouse (12-16 h light, temperature day 20-22° C., night 15-18° C.) until the time of application. The pots were treated on a laboratory track sprayer with spray liquors comprising the compositions according to the invention, mixtures of the prior art or components used individually. […]
(§2) About 3 weeks after the application, the soil action or/and foliar action was assessed visually according to a scale of 0-100% in comparison to an untreated comparative group: 0%=no noticable effect compared to the untreated comparative group; 100%=full effect compared to the untreated comparative group. […]
(§3) Insofar as herbicidal effects of the compositions according to the invention compared to mixtures of the prior art or compared to components applied individually against economically important mono- and dicotyledonous harmful plants were the center of attention, the synergistic herbicidal activities were calculated using Colby's formula (cf. S. R. Colby; Weeds 15 (1967), 20-22): […]
(§4) Δ=difference (%) of the measured value (%) to the expected value (%) (measured value minus expected value). […]

[2] = test system: Lolium spp. resistant to HRAC group A; assay: Greenhouse experiment, post-emergence treatment of ryegrass biotype resistant to HRAC group A; type: in vivo; settings: post-emergence (PO, BBCH 11), about 3 weeks after application
Procedure: as §1, §2, §3, §4

## Nc1c([N+](=O)[O-])ccc(Oc2ccccc2)c1Cl [(A) aclonifen, 2-chloro-6-nitro-3-phenoxybenzenamine]
[1]; 225 g of AS/ha
  effect (measured value, visual scale 0-100% vs untreated): 50%
[2]; 225 g of AS/ha
  effect (measured value, visual scale 0-100% vs untreated): 25%

## O=C(Nc1ccc(F)cc1F)c1cccnc1Oc1cccc(C(F)(F)F)c1 [(B) diflufenican, N-(2,4-difluorophenyl)-2-[3-(trifluoromethyl)phenoxy]-3-pyridinecarboxamide]
[1]; 30 g of AS/ha
  effect (measured value, visual scale 0-100% vs untreated): 5%
[2]; 30 g of AS/ha
  effect (measured value, visual scale 0-100% vs untreated): 10%
